Patent US7666864B2, “Bicyclic nitroimidazole-substituted phenyl oxazolidinones” (priority 2008, dated 2010)
In brackets after ≈: the same amount, converted by molar mass. Where two headings read alike, the source gives them in different places.

Key:
[1] = test system: Staphylococcus aureus ATCC 29213; assay: MIC against Staphylococcus aureus ATCC 29213, microbroth dilution (NCCLS); type: cell-based; settings: for activity against Staphylococcus aureus ATCC 29213 (in words): Gram-positive species; for MIC: Staphylococcus aureus, ATCC29213, microbroth dilution, read-out: MIC S. aureus ATCC# 29213
[2] = test system: S. aureus ATCC# 29213 (Lzd-resistant); assay: microbe, parasite or virus in culture; type: cell-based, Staphylococcus aureus; settings: for MIC: Staphylococcus aureus, ATCC29213, linezolid-resistant isogenic strain; for MIC against strain resistant to linezolid: linezolid-resistant S. aureus
[3] = test system: Mycobacterium tuberculosis H37Rv; assay: MIC against Mycobacterium tuberculosis H37Rv (method of Gruppo); type: cell-based; settings: for MIC: Mycobacterium tuberculosis, H37RV
[4] = test system: Mycobacterium tuberculosis H37Rv; assay: Anaerobic activity against Mycobacterium tuberculosis H37Rv under Wayne conditions (method of Lenaerts); type: cell-based

SMILES	activity against Staphylococcus aureus ATCC 29213 (in words) [1]	MIC [1] [µg/mL]	MIC [2] [µg/mL]	MIC against strain resistant to linezolid [2] [micg/mL]	MIC [3] [µg/mL]	fold less potent than PA-824, in vitro MIC [3] [fold]	fold less potent than linezolid, in vitro MIC [3] [fold]	M. tuberculosis H37Rv % survival at 10 ug/mL (Low O2) [4] [%]	M. tuberculosis H37Rv % survival at 10 ug/mL (Low O2) ([4]; listed as linezolid) [%]
CC(=O)NC[C@H]1CN(c2ccc(-c3cnc(O[C@@H]4COc5nc([N+](=O)[O-])cn5C4)nc3)c(F)c2)C(=O)O1 [Example 8, (S,S)—N-(3-{3-Fluoro-4-[2-(2-nitro-6,7-dihydro-5H-imidazo[2,1-b][1,3]oxazin-6-yloxy)-pyrimidin-5-yl]-phenyl}-2-oxo-oxazolidin-5-ylmethyl)-acetamide]	more potent than linezolid	1 (≈ 1.95 µM)	8 (≈ 15.6 µM)	8	1 (≈ 1.95 µM)	–	–	–	–
CC(=O)NC[C@H]1CN(c2ccc(OCC3(C)Cn4cc([N+](=O)[O-])nc4O3)c(F)c2)C(=O)O1 (stereo partly shown) [Example 50, N-{3-[3-Fluoro-4-(2-methyl-6-nitro-2,3-dihydro-imidazo[2,1-b]oxazol-2-ylmethoxy)-phenyl]-2-oxo-oxazolidin-5-ylmethyl}-acetamide]	–	64 (≈ 142 µM)	–	–	4 (≈ 8.9 µM)	8	2	1.8	–
CC(=O)NC[C@H]1CN(c2ccc(N3CCOCC3)c(F)c2)C(=O)O1 [Linezolid, linezolid, reference compound]	–	2 (≈ 5.93 µM)	64 (≈ 190 µM)	64	2 (≈ 5.93 µM)	–	–	28.2	28.2
O=[N+]([O-])c1cn2c(n1)OC[C@@H](OCc1ccc(OC(F)(F)F)cc1)C2 [PA-824, reference compound]	–	> 64	> 64	–	0.5 (≈ 1.39 µM)	–	–	3.6	–
CC(=O)NC[C@H]1CN(c2ccc(-c3ccc(CO[C@@H]4COc5nc([N+](=O)[O-])cn5C4)cc3)c(F)c2)C(=O)O1 [Example 31, (S,S)—N-{3-[2-Fluoro-4′-(2-nitro-6,7-dihydro-5H-imidazo[2,1-b][1,3]oxazin-6-yloxymethyl)-biphenyl-4-yl]-2-oxo-oxazolidin-5-ylmethyl}-acetamide]	more potent than linezolid	1 (≈ 1.9 µM)	4 (≈ 7.61 µM)	4	0.5 (≈ 0.951 µM)	–	–	–	–
